Measured values as given in patent US20240279205A1, “NOVEL BENZIMIDAZOLE DERIVATIVE” (Carna Biosciences, Inc., priority 2020, published 2024).
Counter-ions that a name gives are not always drawn.

Molecular target: T1, human STING (hSTING) (Homo sapiens, UniProt Q86WV6)
T1 construct: host or cells: HEK-Blue ISG cells (HEK293-derived SEAP reporter line)
Assay: Inhibition test of intracellular human STING (hSTING) pathway using SEAP reporter cells (HEK-Blue ISG), stimulation with Compound 3
Format: cell-based
Design: hSTING inhibitory activity: scale not given here
Conditions: Compound 3 10 nM stimulation, 21 hours; for IC50: read-out: hSTING inhibitory activity
Experimental: Inhibition test of intracellular human STING (hSTING) pathway using reporter cells
Since STING activates the transcription factor IRF3 upon ligand stimulation, the activity of STING can be evaluated by a reporter assay using a secretory alkaline phosphatase (SEAP reporter) integrated downstream of an IRF-inducible promoter.
That is, the hSTING inhibitory activity of the test compound was evaluated using HEK-Blue™MISG cells (manufactured by Invivogen, #hkb-isg-1) incorporating a SEAP reporter. Activation of hSTING was performed by stimulation with the small molecule ligand Compound 3 as described in the literature (Ramanjulu, J. M., et al., Nature. 2018, 564 (7736), 439-443). HEK-Blue™MISG cells were seeded in a 96-well plate and cultured overnight at 37° C. in a 5% CO2 incubator. To each well of this cell culture plate, a test compound solution adjusted to a final concentration of 0.1 to 10 µM of the test compound was added, cultured for 1 hour in a CO2 incubator, and then Compound 3 (final concentration 10 nM) was added and further cultured in a CO2 incubator for 21 hours. After collecting the culture supernatant of each well, the reporter activity was measured by color development reaction with alkaline phosphatase.
The reporter activity of the test compound non-addition and Compound 3 addition group was set to 100%, and the reporter activity of the test compound non-addition and Compound 3 non-addition group was set to 0%. The IC50 value was determined by regression analysis of the inhibitory rate determined from the reporter activity at each compound concentration and the test compound concentration (logarithm).

T1 sequence (Q86WV6 whole entry H232R): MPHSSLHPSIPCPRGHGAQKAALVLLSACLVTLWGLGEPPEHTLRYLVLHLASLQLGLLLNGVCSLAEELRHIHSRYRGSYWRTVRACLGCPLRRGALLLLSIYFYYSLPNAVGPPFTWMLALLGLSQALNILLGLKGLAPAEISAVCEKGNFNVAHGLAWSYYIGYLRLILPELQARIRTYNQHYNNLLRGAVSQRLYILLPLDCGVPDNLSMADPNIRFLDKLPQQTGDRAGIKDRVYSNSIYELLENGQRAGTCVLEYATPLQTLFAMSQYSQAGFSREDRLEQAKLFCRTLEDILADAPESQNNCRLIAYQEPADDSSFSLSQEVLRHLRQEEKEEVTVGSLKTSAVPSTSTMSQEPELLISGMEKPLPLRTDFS

Row | IC50 [µM] | hSTING inhibitory activity | Compound
1 | 1 to 10 | – | Cn1ccc(-c2ccnc3c(Nc4nc5cc(Oc6ccccc6)ccc5[nH]4)c[nH]c23)n1 [Embodiment 165, N-[7-(1-methyl-1H-pyrazol-3-yl)-1H-pyrrolo[3,2-b]pyridin-3-yl]-5-phenoxy-1H-benzo[d]imidazole-2-amine]
2 | – | * * | Cc1cccc2[nH]c(Nc3c[nH]c4ccc(Br)cc34)nc12 [Example 5, N-(5-bromo-1H-indol-3-yl)-4-methyl-1H-benzo[d]imidazol-2-amine]
3 | ≥ 10 | – | Clc1ccc2[nH]cc(Nc3nc4cc(-c5ccc(CN6CCOCC6)cc5)ccc4[nH]3)c2n1 [Embodiment 98, N-(5-Chloro-1H-pyrrolo[3,2-b]pyridin-3-yl)-5-[4-(morpholinomethyl)phenyl]-1H-benzo[d] imidazol-2-amine]
4 | – | * * | Brc1ccc2[nH]cc(Nc3nc4cc(OCc5ccccc5)ccc4[nH]3)c2n1 [Embodiment 69, 5-(benzyloxy)-N-(5-bromo-1H-pyrrolo[3,2-b]pyridin-3-yl)-1H-benzo[d]imidazol-2-amine]
5 | 1 to 10 | – | Clc1ccc2[nH]cc(Nc3nc4cc(-c5cccnc5)ccc4[nH]3)c2n1 [Embodiment 97, N-(5-Chloro-1H-pyrrolo[3,2-b]pyridin-3-yl)-5-(pyridin-3-yl)-1H-benzo[d]imidazol-2-amine]
6 | ≥ 10 | – | CN(C)c1ccnc2c(Nc3nc4cc(Oc5ccccc5)ccc4[nH]3)c[nH]c12 [Embodiment 70, N7,N7-dimethyl-N3-(5-phenoxy-1H-benzo[d]imidazol-2-yl)-1H-pyrrolo[3,2-b]pyridine-3,7-diamine formate]
7 | 1 to 10 | – | FC(F)(F)c1cnc2[nH]cc(Nc3nc4cc(Oc5ccccc5)ccc4[nH]3)c2c1 [Embodiment 74, 5-phenoxy-N-[5-(trifluoromethyl)-1H-pyrrolo[2,3-b]pyridin-3-yl]-1H-benzo[d]imidazol-2-amine formate]
8 | – | * * | Ic1ccc2[nH]cc(Nc3nc4ccccc4[nH]3)c2c1 [Example 16, N-(5-iodo-1H-indol-3-yl)-1H-benzo[d]imidazol-2-amine]
9 | – | * * | CN(c1ccccc1)S(=O)(=O)c1ccc2[nH]c(Nc3c[nH]c4ccc(Cl)nc34)nc2c1 [Embodiment 75, 2-[(5-Chloro-1H-pyrrolo[3,2-b]pyridin-3-yl)amino]-N-methyl-N-phenyl-1H-benzo[d]imidazole-5-sulfonamide]
10 | ≥ 10 | – | c1ccc(-c2ccc3[nH]cc(Nc4nc5ccccc5[nH]4)c3c2)cc1 [Example 2, N-(5-phenyl-1H-indol-3-yl)-1H-benzo[d]imidazol-2-amine]
11 | ≥ 10 | – | C#CCNC(=O)c1ccc2[nH]cc(Nc3nc4cc(Oc5ccccc5)ccc4[nH]3)c2c1 [Example 29, 3-[(5-phenoxy-1H-benzo[d]imidazol-2-yl)amino]-N-(prop-2-yn-1-yl)-1H-indole-5-carboxamide]
12 | ≥ 10 | – | COCCn1c(Nc2c[nH]c3ccc(Cl)nc23)nc2cc(-c3ccccc3)ccc21 [Embodiment 181]
13 | ≥ 10 | – | Clc1ccc2[nH]cc(Nc3nc4c(-c5ccncc5)cccc4[nH]3)c2n1 [Embodiment 148, N-(5-Chloro-1H-pyrrolo[3,2-b]pyridin-3-yl)-4-(pyridin-4-yl)-1H-benzo[d]imidazol-2-amine]
14 | 1 to 10 | – | c1ccc(Oc2ccc3[nH]c(Nc4c[nH]c5c(-c6cccnc6)ccnc45)nc3c2)cc1 [Embodiment 164, 5-phenoxy-N-[7-(pyridin-3-yl)-1H-pyrrolo[3,2-b]pyridin-3-yl]-1H-benzo[d]imidazol-2-amine]
15 | – | * * | Clc1ccc2[nH]cc(Nc3nc4cc(-c5cccc(CN6CCOCC6)c5)ccc4[nH]3)c2n1 [Embodiment 99, N-(5-Chloro-1H-pyrrolo[3,2-b]pyridin-3-yl)-5-[3-(morpholinomethyl)phenyl]-1H-benzo[d] imidazol-2-amine]

Continued, compound first:

Row | Compound | IC50 [µM] | hSTING inhibitory activity
16 | Clc1ccc2[nH]cc(Nc3nc4cc(OC5CCOCC5)ccc4[nH]3)c2n1 [Embodiment 142, N-(5-Chloro-1H-pyrrolo[3,2-b]pyridin-3-yl)-5-[(tetrahydro-2H-pyran-4-yl)oxy)-1H-benzo[d] imidazol-2-amine] | ≥ 10 | –
17 | Cn1c(Nc2c[nH]c3ccc(Cl)nc23)nc2ccc(C(F)(F)F)cc21 [Embodiment 46, N-(5-Chloro-1H-pyrrolo[3,2-b]pyridin-3-yl)-1-methyl-6-(trifluoromethyl)-1H-benzo[d] imidazol-2-amine] | ≥ 10 | –
18 | O=[N+]([O-])c1cc2[nH]c(Nc3c[nH]c4ccc(Cl)nc34)nc2cc1F [Embodiment 177, N-(5-Chloro-1H-pyrrolo[3,2-b]pyridin-3-yl)-5-fluoro-6-nitro-1H-benzo[d]imidazol-2-amine] | 1 to 10 | –
19 | Cn1c(Nc2c[nH]c3ccc(Cl)nc23)nc2cc(Oc3cccnc3)ccc21 [Embodiment 198, N-(5-chloro-1H-pyrrolo[3,2-b]pyridin-3-yl)-1-methyl-5-(pyridin-3-yloxy)-1H-benzo[d]imidazole-2-amine] | ≥ 10 | –
20 | Cn1c(Nc2c[nH]c3ccc(Cl)nc23)nc2cc(F)ccc21 [Embodiment 168, N-(5-Chloro-1H-pyrrolo[3,2-b]pyridin-3-yl)-5-fluoro-1-methyl-1H-benzo[d]imidazol-2-amine formate] | ≥ 10 | –
21 | Cn1c(Nc2c[nH]c3ccc(Cl)nc23)nc2c(F)cc(F)cc21 [Embodiment 203, N-(5-Chloro-1H-pyrrolo[3,2-b]pyridin-3-yl)-4,6-difluoro-1-methyl-1H-benzo[d]imidazol-2-amine] | ≥ 10 | –
22 | CC(C)n1c(Nc2c[nH]c3ccc(Cl)nc23)nc2cc(Cl)c(Cl)cc21 [Embodiment 132, 5,6-dichloro-N-(5-chloro-1H-pyrrolo[3,2-b]pyridin-3-yl)-1-isopropyl-1H-benzo[d]imidazol-2-amine] | 1 to 10 | –
23 | CN(C)n1c(Nc2c[nH]c3ccc(Cl)cc23)nc2cc(C(F)(F)F)c(F)cc21 [Embodiment 275, N2-(5-Chloro-1H-indol-3-yl)-6-fluoro-N1,N1-dimethyl-5-(trifluoromethyl)-1H-benzo[d] imidazole-1,2-didiamine] | – | * * *
24 | Cn1c(Nc2c[nH]c3ccc(Cl)nc23)nc2c(F)cccc21 [Embodiment 155, N-(5-Chloro-1H-pyrrolo[3,2-b]pyridin-3-yl)-4-fluoro-1-methyl-1H-benzo[d]imidazol-2-amine] | ≥ 10 | –
25 | N#Cc1cccc2[nH]c(Nc3c[nH]c4ccc(Cl)nc34)nc12 [Embodiment 113, 2-[(5-Chloro-1H-pyrrolo[3,2-b]pyridin-3-yl)amino]-1H-benzo [d]imidazole-4-carbonitrile] | ≥ 10 | –
26 | CN1CCC(Oc2ccc3[nH]c(Nc4c[nH]c5ccc(Cl)nc45)nc3c2)CC1 [Embodiment 121, N-(5-Chloro-1H-pyrrolo[3,2-b]pyridin-3-yl)-5-[(1-methylpiveridin-4-yl)oxy]-1H-benzo[d]imidazole-2-amine] | 1 to 10 | –
27 | CNn1c(Nc2c[nH]c3ccc(F)c(F)c23)nc2cc(C(F)(F)F)cc(F)c21 [Embodiment 272, N2-(4,5-difluoro-1H-indol-3-yl)-7-fluoro-N1-methyl-5-(trifluoromethyl)-1H-benzo[d]imidazole-1,2-diamine] | – | * * *
28 | Cn1c(Nc2c[nH]c3ccc(Cl)nc23)nc2cc(F)c(F)cc21 [Embodiment 138, N-(5-Chloro-1H-pyrrolo[3,2-b]pyridin-3-yl)-5,6-difluoro-1-methyl-1H-benzo[d]imidazol-2-amine] | ≥ 10 | –
29 | Cn1c(Nc2c[nH]c3ccc(Cl)nc23)nc2cc(C3CCOCC3)ccc21 [Embodiment 153, N-(5-chloro-1H-pyrrolo[3,2-b]pyridin-3-yl)-1-methyl-5-(tetrahydro-2H-pyran-4-yl)-1H-benzo[d] imidazol-2-amine] | ≥ 10 | –
30 | Cn1c(Nc2c[nH]c3ccc(Cl)nc23)nc2ccc(Oc3ccc(C#N)cc3)cc21 [Embodiment 174, 4-({2-[(5-chloro-1H-pyrrolo[3,2-b]pyridin-3-yl)amino]-1-methyl-1H-benzo[d]imidazol-6-yl} Oxy)benzonitrile] | ≥ 10 | –
31 | CC=C(Cl)c1ccc2[nH]c(Nc3c[nH]c4ccc(Cl)nc34)nc2c1 [Embodiment 137, N-(5-Chloro-1H-pyrrolo[3,2-b]pyridin-3-yl)-5-(1-chloroprop-1-en-1-yl)-1H-benzo[d]imidazole-2-amine] | – | * * *
32 | COCCn1c(Nc2c[nH]c3ccc(Cl)nc23)nc2ccc(F)c(F)c21 [Embodiment 201, N-(5-chloro-1H-pyrrolo[3,2-b]pyridin-3-yl)-6,7-difluoro-1-(2-methoxyethyl)-1H-benzo[d]imidazole-2-amine] | ≥ 10 | –
33 | O=C(O)c1ccc2[nH]c(Nc3c[nH]c4ccc(Br)nc34)nc2c1 [Embodiment 37, 2-[(5-bromo-1H-pyrrolo[3,2-b]pyridin-3-yl)amino]-1H-benzo[d]imidazole-5-carboxylic acid] | ≥ 10 | –
34 | CCc1ccc2[nH]cc(Nc3nc4cc(C(F)(F)F)ccc4n3C)c2n1 [Embodiment 173, N-(5-ethyl-1H-pyrrolo[3,2-b]pyridin-3-yl)-1-methyl-5-(trifluoromethyl)-1H-benzo[d]imidazol-2-amine] | ≥ 10 | –
